Measurements as given in patent US4318916A, “Antibiotic PS-5 and derivatives having β-lactamase inhibitory activity and production thereof” (Sanraku-Ocean Co., Ltd., priority 1977, dated 1982).
Like-named read-outs stand apart in the source and are kept apart here.

Legend:
Citrobacter freundii E-9 = assay: Potentiation disc assay with penicillin G (Table 9); assay type: cell-based; details: for Inhibition zone With pen. G: 50 μg/ml penicillin G in agar
Procedure: (§1) (A) Ten milliliters of molten nutrient agar containing 50 μg/ml of penicillin G or cephaloridine, 0.8% of Kyokuto Nutrient Broth Powder and 1.0% of Difco Bacto-Agar (pH 7.0) were seeded with the beta-lactam-resistant, beta-lactamase-producing microorganisms indicated in Tables 9 and 10, and poured in a 9-cm Petri dish to provide the bio-assay agar plate. On this assay plate, 8-mm pulp discs containing 25 μl each of antibiotic PS-5 solutions at the indicated concentrations were placed and incubated at 35° C. for 18 hours before reading the inhibition zones. The control assay plate was similarly prepared without penicillin G nor cephaloridine. As reference antibiotics, penicillin G, ampicillin, oxacillin and cefazolin were disc-assayed under the same conditions.

Enterobacter sp. E-8 = assay: as above; assay type: cell-based; details: for Inhibition zone With pen. G: 50 μg/ml penicillin G in agar
Procedure: as §1

Proteus sp. P-22 = assay: as above; assay type: cell-based; details: for Inhibition zone With pen. G: 50 μg/ml penicillin G in agar
Procedure: as §1

Proteus vulgaris P-5 [1] = assay: as above; assay type: cell-based; details: for Inhibition zone With pen. G: 50 μg/ml penicillin G in agar
Procedure: as §1

Serratia marcescens S-18 = assay: as above; assay type: cell-based; details: for Inhibition zone With pen. G: 50 μg/ml penicillin G in agar
Procedure: as §1

Proteus vulgaris P-5 [2] = assay: Potentiation disc assay with cephaloridine (Table 10); assay type: cell-based; details: Proteus vulgaris P-5; for Inhibition zone With CER: 50 μg/ml cephaloridine in agar
How it was run: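 Resistant β-lactamase producers seeded in nutrient agar (pH 7.0) containing 50 μg/ml penicillin G or cephaloridine; 8-mm discs with 25 μl PS-5 solutions at stated concentrations applied. Inhibition zones read after 18 h at 35° C; control plates lacked the β-lactam.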

[3] = test system: Staphylococcus aureus Smith; assay: In vivo activity of trityl ester in infected mice
Procedure: The in vivo activity of the tritylation product of the antibiotic PS-5 was measured in mice intraperitoneally infected with 5×10^3 cells/mouse of Staphylococcus aureus Smith. The trityl ester of the antibiotic PS-5 was subcutaneously injected just after infection.

[4] = target: Beta-lactamase from Citrobacter freundii E-9 (Citrobacter freundii, UniProt P05193); assay: Beta-lactamase inhibition, hydrolysis of cephaloridine (I50 CER); assay type: biochemical; details: Citrobacter freundii E-9 beta-lactamase; cephaloridine substrate; 15 minutes preincubation at 30° C.
Sequence of Beta-lactamase from Citrobacter freundii E-9 (P05193 21-381): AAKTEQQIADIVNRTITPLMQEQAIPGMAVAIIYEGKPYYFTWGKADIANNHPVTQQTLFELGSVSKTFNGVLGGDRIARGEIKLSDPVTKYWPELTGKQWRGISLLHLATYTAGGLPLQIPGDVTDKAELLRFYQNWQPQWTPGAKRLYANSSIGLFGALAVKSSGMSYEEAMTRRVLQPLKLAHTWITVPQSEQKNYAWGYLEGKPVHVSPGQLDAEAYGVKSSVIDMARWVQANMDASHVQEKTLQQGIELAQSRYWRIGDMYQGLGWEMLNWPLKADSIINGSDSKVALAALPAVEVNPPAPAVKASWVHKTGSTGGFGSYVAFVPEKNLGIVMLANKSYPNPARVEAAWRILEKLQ
Procedure: The I50^CER value of hydrolysis of cephaloridine by beta-lactamasefor 10 minutes (from one minute to ten minutes after the incubation is started). The rate of hydrolysis of cephaloridine is measured by the decrease of optical density at […]. For routine inhibition assays, beta-lactamase of Citrobacter freundii E-9 and Proteus vulgaris P-5 were employed after purification by affinity chromatography with cephalexin-Sepharose 4B.
Buffer: 0.1 M phosphate buffer (Na-K phosphate) (pH 6.8)
Substrate: 0.05 micromole/ml in phosphate buffer
Beta-lactamase: The enzyme was diluted enough to give a fall of ca. 0.1 optical density unit per 10 minutes at 255 mμ in the absence of an inhibitor. (Apparatus: Hitachi Spectrophotometer UV-VIS 139, Hitachi, Ltd.).
(This can hold one control cuvette and three sample cuvettes. Four 1 cm quarz cuvettes (3 ml in volume) were employed. The temperature was maintained at 30° C. during the reaction). […]
After pre-incubation, the substrate solution (pre-warmed at 30° C.; 3.0 ml) was added and quickly mixed to start the reaction. […] The value of I50^CER (μg/ml) was determined by diluting the inhibitor untill the dilution gave 50% of the rate of hydrolysis of cephaloridine recorded in the no-inhibitor control for 10 minutes (from 1 minute to 11 minutes after the substrate was added).

[5] = pH and heat stability of trityl ester of antibiotic PS-5; assay type: physicochemical; details: for remaining at 0.5 h: phosphate buffer, read-out: Residual activity
Procedure: The trityl ester of antibiotic PS-5 was dissolved in one volume of methanol and then diluted with 9 volumes of distilled water as soon as possible to provide a solution of 125 CCU/ml. A tenth molar dipotassium phosphate solution was adjusted with 5 N phosphoric acid or 5 N sodium hydroxide to the indicated pH's in the range of 3-9.
To one milliliter each of the phosphate buffers, one milliliter each of the said solution of the trityl ester of antibiotic PS-5 was added and, if necessary, the pH value of the mixture was readjusted with phosphoric acid or sodium hydroxyde to the desired pH value. […]
The control solution (pH 7.0) was kept in an ice bath for the experimental period. The residual antibiotic activity was assayed by the routine disc assay method with Comamonas terrigena B-996 as the test microorganism.

CCC1C(=O)N2C(C(=O)O)=C(SCCNC(C)=O)CC12 (single isomer, unassigned) [Antibiotic PS-5]
zone of inhibition at 79.5 µg/mL (Citrobacter freundii E-9; E9, 18 h, PS-5 79.5 μg/ml, read-out: Inhibition zone Without pen. G): 10.4 mm
zone of inhibition at 100 µg/mL (Citrobacter freundii E-9; E9, 18 h, PS-5 100 μg/ml, read-out: Inhibition zone Without pen. G): 13.2 mm
zone of inhibition at 159 µg/mL (Citrobacter freundii E-9; E9, 18 h, PS-5 159 μg/ml, read-out: Inhibition zone Without pen. G): 17.2 mm
zone of inhibition at 318 µg/mL (Citrobacter freundii E-9; E9, 18 h, PS-5 318 μg/ml, read-out: Inhibition zone Without pen. G): 20.8 mm
Inhibition zone With pen. G (Citrobacter freundii E-9; PS-5 79.5 μg/ml): 13.1 mm
Inhibition zone With pen. G (Citrobacter freundii E-9; PS-5 100 μg/ml): 15.2 mm
Inhibition zone With pen. G (Citrobacter freundii E-9; PS-5 159 μg/ml): 19.2 mm
Inhibition zone With pen. G (Citrobacter freundii E-9; PS-5 318 μg/ml): 23.0 mm
Inhibition zone With pen. G (Enterobacter sp. E-8; PS-5 79.5 μg/ml): 11.0 mm
Inhibition zone With pen. G (Enterobacter sp. E-8; PS-5 100 μg/ml): 13.8 mm
Inhibition zone With pen. G (Enterobacter sp. E-8; PS-5 159 μg/ml): 17.5 mm
Inhibition zone With pen. G (Enterobacter sp. E-8; PS-5 318 μg/ml): 20.0 mm
zone of inhibition at 79.5 µg/mL (Enterobacter sp. E-8; SP.E8, 18 h, PS-5 79.5 μg/ml, read-out: Inhibition zone Without pen. G): 11 mm
zone of inhibition at 100 µg/mL (Enterobacter sp. E-8; SP.E8, 18 h, PS-5 100 μg/ml, read-out: Inhibition zone Without pen. G): 13.8 mm
zone of inhibition at 159 µg/mL (Enterobacter sp. E-8; SP.E8, 18 h, PS-5 159 μg/ml, read-out: Inhibition zone Without pen. G): 17.2 mm
zone of inhibition at 318 µg/mL (Enterobacter sp. E-8; SP.E8, 18 h, PS-5 318 μg/ml, read-out: Inhibition zone Without pen. G): 20.1 mm
zone of inhibition at 79.5 µg/mL (Proteus sp. P-22; 18 h, PS-5 79.5 μg/ml, read-out: Inhibition zone Without pen. G): 0 mm
zone of inhibition at 100 µg/mL (Proteus sp. P-22; 18 h, PS-5 100 μg/ml, read-out: Inhibition zone Without pen. G): 0 mm
zone of inhibition at 159 µg/mL (Proteus sp. P-22; 18 h, PS-5 159 μg/ml, read-out: Inhibition zone Without pen. G): 11.7 mm
zone of inhibition at 318 µg/mL (Proteus sp. P-22; 18 h, PS-5 318 μg/ml, read-out: Inhibition zone Without pen. G): 13.6 mm
Inhibition zone With pen. G (Proteus sp. P-22; PS-5 79.5 μg/ml): 12.8 mm
Inhibition zone With pen. G (Proteus sp. P-22; PS-5 100 μg/ml): 13.8 mm
Inhibition zone With pen. G (Proteus sp. P-22; PS-5 159 μg/ml): 18.2 mm
Inhibition zone With pen. G (Proteus sp. P-22; PS-5 318 μg/ml): 21.4 mm
zone of inhibition at 79.5 µg/mL (Proteus vulgaris P-5 [1]; P5, 18 h, PS-5 79.5 μg/ml, read-out: Inhibition zone Without pen. G): 0 mm
zone of inhibition at 100 µg/mL (Proteus vulgaris P-5 [1]; P5, 18 h, PS-5 100 μg/ml, read-out: Inhibition zone Without pen. G): 10.3 mm
zone of inhibition at 159 µg/mL (Proteus vulgaris P-5 [1]; P5, 18 h, PS-5 159 μg/ml, read-out: Inhibition zone Without pen. G): 14 mm
zone of inhibition at 318 µg/mL (Proteus vulgaris P-5 [1]; P5, 18 h, PS-5 318 μg/ml, read-out: Inhibition zone Without pen. G): 16 mm
Inhibition zone With pen. G (Proteus vulgaris P-5 [1]; PS-5 79.5 μg/ml): 18.3 mm
Inhibition zone With pen. G (Proteus vulgaris P-5 [1]; PS-5 100 μg/ml): 22.2 mm
Inhibition zone With pen. G (Proteus vulgaris P-5 [1]; PS-5 159 μg/ml): 24.5 mm
Inhibition zone With pen. G (Proteus vulgaris P-5 [1]; PS-5 318 μg/ml): 26.6 mm
Inhibition zone With pen. G (Serratia marcescens S-18; PS-5 79.5 μg/ml): 13.8 mm
Inhibition zone With pen. G (Serratia marcescens S-18; PS-5 100 μg/ml): 16.1 mm
Inhibition zone With pen. G (Serratia marcescens S-18; PS-5 159 μg/ml): 22.0 mm
Inhibition zone With pen. G (Serratia marcescens S-18; PS-5 318 μg/ml): 22.1 mm
zone of inhibition at 79.5 µg/mL (Serratia marcescens S-18; S18, 18 h, PS-5 79.5 μg/ml, read-out: Inhibition zone Without pen. G): 0 mm
zone of inhibition at 100 µg/mL (Serratia marcescens S-18; S18, 18 h, PS-5 100 μg/ml, read-out: Inhibition zone Without pen. G): 13 mm
zone of inhibition at 159 µg/mL (Serratia marcescens S-18; S18, 18 h, PS-5 159 μg/ml, read-out: Inhibition zone Without pen. G): 17.8 mm
zone of inhibition at 318 µg/mL (Serratia marcescens S-18; S18, 18 h, PS-5 318 μg/ml, read-out: Inhibition zone Without pen. G): 21.3 mm
zone of inhibition at 79.5 µg/mL (Proteus vulgaris P-5 [2]; P5, 18 h, PS-5 79.5 μg/ml, read-out: Inhibition zone Without CER): 12.5 mm
zone of inhibition at 100 µg/mL (Proteus vulgaris P-5 [2]; P5, 18 h, PS-5 100 μg/ml, read-out: Inhibition zone Without CER): 13.7 mm
zone of inhibition at 159 µg/mL (Proteus vulgaris P-5 [2]; P5, 18 h, PS-5 159 μg/ml, read-out: Inhibition zone Without CER): 15.2 mm
zone of inhibition at 318 µg/mL (Proteus vulgaris P-5 [2]; P5, 18 h, PS-5 318 μg/ml, read-out: Inhibition zone Without CER): 18.5 mm
Inhibition zone With CER (Proteus vulgaris P-5 [2]; PS-5 79.5 μg/ml): 21.8 mm
Inhibition zone With CER (Proteus vulgaris P-5 [2]; PS-5 100 μg/ml): 22.0 mm
Inhibition zone With CER (Proteus vulgaris P-5 [2]; PS-5 159 μg/ml): 24.0 mm
Inhibition zone With CER (Proteus vulgaris P-5 [2]; PS-5 318 μg/ml): 25.2 mm

CCC1C(=O)N2C(C(=O)OC(c3ccccc3)(c3ccccc3)c3ccccc3)=C(SCCNC(C)=O)CC12 (single isomer, unassigned) [Trityl PS-5]
50% curative dose ([3]; male ddy mice, Staphylococcus aureus Smith, subcutaneous, in Comamonas-cephaloridine units): 27,540 CCU/kg
Therapeutic effect in infected mice ([3]; mice infected with a pathogenic Gram-positive bacteria): marked therapeutic effect
ED50 ([3]; sc, male ddy mice infected i.p. with 5×10^3 cells/mouse Staphylococcus aureus Smith, subcutaneously injected just after infection, read-out: 50% curative dose): 2.55 mg/kg
IC50 [4]: 1480 nM
Loss of activity ([5]; aqueous solution, pH 7.5 for 90 minutes at 60° C.): no substantial loss of activity
remaining at 0.5 h ([5]; pH 3.0, 60° C. for 30 minutes, percent of control): 0%
remaining at 0.5 h ([5]; pH 4.0, 60° C. for 30 minutes): 0%
remaining at 0.5 h ([5]; pH 5.0, 60° C. for 30 minutes): 6.5%
remaining at 0.5 h ([5]; pH 6.0, 60° C. for 30 minutes): 79%
remaining at 0.5 h ([5]; pH 7.0, 60° C. for 30 minutes): 100%
remaining at 0.5 h ([5]; pH 8.0, 60° C. for 30 minutes): 100%
remaining at 0.5 h ([5]; pH 9.0, 60° C. for 30 minutes): 100%
